From PubChem BioAssay AID1919007 (Molecular Pharmacology Branch, DTP, NCI, 2023)
Where “and” joins values, the source holds several entries; their conditions need not be identical. Identical values can stand only once.

Test system: A498 complex spheroids with HUVEC/MSC, growth
Assay: Anticancer human tumor A498 cell line growth inhibition [AhR];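 note: seven day exposure starting three days after spheroid seeding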;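 for viability, T/C: luminescence signal used as a surrogate for viable cells; luminescence viability scaled so 100% equals DMSO vehicle wells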
Conditions: for viability, T/C: stronger effect = lower value; active = viability on the fitted dose curve at most 10% of control; inactive = the rest
How it was run: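 Complex tumor spheroids co-cultured with HUVEC and human MSC stroma; AhR antagonists tested in combination with standard-of-care and investigational agents. Top concentration at or near clinical Cmax (else 10 microM), half-log dilutions; growth expressed as percent test/control.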

[1] = curve of first compound, second compound 0.1 µM
[2] = curve of first compound, second compound 0.316 µM
[3] = curve of first compound, second compound 1 µM
[4] = curve of first compound, second compound 3.16 µM
[5] = curve of first compound, second compound 10 µM
[6] = second compound 0.1 µM, first compound 0.0316 µM
[7] = second compound 0.1 µM, first compound 0.1 µM
[8] = second compound 0.1 µM, first compound 0.316 µM
[9] = second compound 0.1 µM, first compound 1 µM
[10] = second compound 0.1 µM, first compound 3.16 µM
[11] = second compound 0.1 µM, first compound 10 µM
[12] = second compound 0.316 µM, first compound 0.0316 µM
[13] = second compound 0.316 µM, first compound 0.1 µM
[14] = second compound 0.316 µM, first compound 0.316 µM
[15] = second compound 0.316 µM, first compound 1 µM
[16] = second compound 0.316 µM, first compound 3.16 µM
[17] = second compound 0.316 µM, first compound 10 µM
[18] = second compound 1 µM, first compound 0.0316 µM
[19] = second compound 1 µM, first compound 0.1 µM
[20] = second compound 1 µM, first compound 0.316 µM
[21] = second compound 1 µM, first compound 1 µM
[22] = second compound 1 µM, first compound 3.16 µM
[23] = second compound 1 µM, first compound 10 µM
[24] = second compound 3.16 µM, first compound 0.0316 µM
[25] = second compound 3.16 µM, first compound 0.1 µM
[26] = second compound 3.16 µM, first compound 0.316 µM
[27] = second compound 3.16 µM, first compound 1 µM
[28] = second compound 3.16 µM, first compound 3.16 µM
[29] = second compound 3.16 µM, first compound 10 µM
[30] = second compound 10 µM, first compound 0.0316 µM
[31] = second compound 10 µM, first compound 0.1 µM
[32] = second compound 10 µM, first compound 0.316 µM
[33] = second compound 10 µM, first compound 1 µM
[34] = second compound 10 µM, first compound 3.16 µM
[35] = second compound 10 µM, first compound 10 µM

O=C(c1cc(Cc2n[nH]c(=O)c3ccccc23)ccc1F)N1CCN(C(=O)C2CC2)CC1 + CC(CO)NC(=O)c1cc(-c2ccc(Cl)cc2)nn(-c2cnn(C)c2)c1=O
> 10000 nM: IC50 [1] | IC50 [2] | IC50 [3] | IC50 [4] | IC50 [5]
inactive: viability, T/C [6] 105% | viability, T/C [7] 93.3% | viability, T/C [8] 102% | viability, T/C [9] 84.6% | viability, T/C [10] 94.6% | viability, T/C [11] 85.3% | viability, T/C [12] 97% | viability, T/C [13] 106% | viability, T/C [14] 99.9% | viability, T/C [15] 81.2% | viability, T/C [16] 87.4% | viability, T/C [17] 81.7% | viability, T/C [18] 99% | viability, T/C [19] 96.6% | viability, T/C [20] 94.6% | viability, T/C [21] 77.9% | viability, T/C [22] 87.2% | viability, T/C [23] 79.9% | viability, T/C [24] 91.3% | viability, T/C [25] 81.7% | viability, T/C [26] 83.5% | viability, T/C [27] 77.2% | viability, T/C [28] 79% | viability, T/C [29] 70.3% | viability, T/C [30] 71.7% | viability, T/C [31] 67.6% | viability, T/C [32] 69.1% | viability, T/C [33] 61.6% | viability, T/C [34] 64.1% | viability, T/C [35] 62%

Nc1ccccc1NC(=O)c1ccc(CNC(=O)OCc2cccnc2)cc1 + CC(CO)NC(=O)c1cc(-c2ccc(Cl)cc2)nn(-c2cnn(C)c2)c1=O
766 nM: IC50 [3]
703 nM: IC50 [4]
963 nM: IC50 [1]
799 nM: IC50 [2]
active: viability, T/C [11] 1.98% | viability, T/C [17] 2.07% | viability, T/C [29] 1.92% | viability, T/C [35] 0.8%
322 nM: IC50 [5]
inactive: viability, T/C [6] 89.4% | viability, T/C [7] 88.8% | viability, T/C [8] 77.7% | viability, T/C [9] 44.6% | viability, T/C [10] 24.5% | viability, T/C [12] 79.5% | viability, T/C [13] 85.8% | viability, T/C [14] 74% | viability, T/C [15] 39.5% | viability, T/C [16] 23.2% | viability, T/C [18] 75% | viability, T/C [19] 75% | viability, T/C [20] 78.5% | viability, T/C [21] 39.2% | viability, T/C [22] 23% | viability, T/C [23] 4.91% | viability, T/C [24] 64.5% | viability, T/C [25] 73.8% | viability, T/C [26] 71.4% | viability, T/C [27] 38.1% | viability, T/C [28] 20.2% | viability, T/C [30] 58.2% | viability, T/C [31] 53.1% | viability, T/C [32] 55.1% | viability, T/C [33] 28.7% | viability, T/C [34] 14.5%

Cn1ncnc1C1c2n[nH]c(=O)c3cc(F)cc(c23)NC1c1ccc(F)cc1 (configuration not stated)
inactive: viability, T/C (compound 0.000316 µM) 105% and 97.2% and 110% | viability, T/C (compound 0.001 µM) 117% and 105% and 114% | viability, T/C (compound 0.00316 µM) 109% and 102% and 103% | viability, T/C (compound 0.01 µM) 108% and 101% and 100% | viability, T/C (compound 0.0316 µM) 112% and 106% and 103% | viability, T/C (compound 0.1 µM) 107% and 98.3% and 85.8%
> 100 nM: IC50 (curve of compound)
